Results on 4 compounds are retold here after patent US20100168150A1, “Camptothecin Analogue Compounds, a Process for Their Preparation and Pharmaceutical Compositions Containing Them” (Les Laboratoires Servier, priority 2005, published 2010).

Data set [1] relates to murine leukaemia L1210. Description: In vitro cytotoxicity, Microculture Tetrazolium Assay, L1210. The following applies: L1210 cells, 48 hours exposure, inhibition of proliferation. The data set is classed as cell-based. How it is done:
(§1) The murine leukaemia L1210 and the human colon carcinomas HCT116 and HT29 were used in vitro. The cells are cultured in RPMI 1640 complete culture medium containing 10% foetal calf serum, 2 mM glutamine, 50 units/ml of penicillin, 50 μg/ml of streptomycin and 10 mM Hepes, pH=7.4. The cells are distributed on microplates and are exposed to the cytotoxic compounds for 4 doubling times, that is to say 48 hours (L1210) or 96 hours (HCT116 and HT29). The number of viable cells is then quantified by a colorimetric assay, the Microculture Tetrazolium Assay (J. Carmichael et al., Cancer Res.; 47, 936-942, (1987)). The results are expressed in terms of the IC50 (the concentration of cytotoxic agent which inhibits proliferation of the treated cells by 50%).

In data set [2] the test system is human colon carcinoma HCT116. As to the kind of experiment: In vitro cytotoxicity, Microculture Tetrazolium Assay, HCT116. The class given is cell-based. To be noted: HCT116 cells, 96 hours exposure, inhibition of proliferation. How it is done:
as §1

Data set [3] relates to human colon carcinoma HT29. As to the kind of experiment: In vitro cytotoxicity, Microculture Tetrazolium Assay, HT29. The class given is cell-based. To be noted: HT29 cells, 96 hours exposure, inhibition of proliferation. The method, then: as §1
Data set [4] is described as follows: In vivo toxicity, maximum tolerated dose. To be noted: nude (bab/c), mouse, in vivo; nude mice, intravenous administration once per week for 3 weeks; largest dose causing neither death nor weight loss of more than 20%. How it is done: (§2) The compounds are formulated in a Tween/water mixture and administered by the intravenous (i.v.) route (administration over three weeks at the rate of once per week, the injection volume being 0.2 ml/mouse with increasing doses of compounds of 6.25, 12.5, 25 and 50 mg/kg) to nude mice (bab/c supplied by Iffa Credo) weighing about 20 g. The maximum tolerated dose (MTD) is the largest dose causing neither death nor a weight loss of more than 20%.

Data set [5] deals with nude mice. Description: In vivo toxicity, maximum tolerated dose. To be noted: i.v. once per week for 3 weeks, compared with compound of Preparation 2. The method, then: as §2
The test system of data set [6] is HCT116. As to the kind of experiment: In vivo activity with respect to HCT116. To be noted: compared with non-esterified homologue (compound of Preparation 2).

Counter-ions that a name gives are not always drawn.

One may read the IC50 as the concentration at which inhibition is half-maximal. Lower therefore signals higher potency. Turning to `CCC1(OC(=O)CCN2CCc3cc(OC)c(OC)cc3C2)C(=O)Cc2c1cc1n(c2=O)Cc2c-1nc1cc3c(cc1c2C1CCC1)OCO3` (stereo not drawn) [Example 24, 7-Ethyl-2,3-methylenedioxy-13-cyclobutyl-8,10-dioxo-8,9,10,12-tetrahydro-7H-cyclopenta[6,7]indolizino[1,2-b]quinolin-7-yl 3-[(6,7-dimethoxy-3,4-dihydroisoquinolin-2(1H)-yl]propanoate hydrochloride], the values for the IC50 in data set [1], in data set [2] and in data set [3] were 7.9 nM, 0.7 nM and 2.6 nM, respectively.

Take `CCC1(OC(=O)CCN2CCCCC2)C(=O)Cc2c1cc1n(c2=O)Cc2c-1nc1cc3c(cc1c2C)OCO3` (stereo not drawn) [Example 1, 7-Ethyl-2,3-methylenedioxy-13-methyl-8,10-dioxo-8,9,10,12-tetrahydro-7H-cyclopenta[6,7]indolizino[1,2-b]quinolin-7-yl 3-piperidinopropanoate hydrochloride]: it took 4.2 nM to reach half-maximal inhibition in data set [1] (Mus musculus) (IC50).

As for `CCC1(OC(=O)CCN2CC[C@H]3CCCC[C@@H]3C2)C(=O)Cc2c1cc1n(c2=O)Cc2c-1nc1cc3c(cc1c2C1CCC1)OCO3` (stereo partly drawn) [Example 23, 7-Ethyl-2,3-methylenedioxy-13-cyclobutyl-8,10-dioxo-8,9,10,12-tetrahydro-7H-cyclopenta[6,7]indolizino[1,2-b]quinolin-7-yl 3-[(4aR,8aS)-octahydroisoquinolin-2(1H)-yl]propanoate hydrochloride], the half-maximal inhibitory concentration (IC50) in data set [1] (Mus musculus) was determined as 7.3 nM; in data set [2] (Homo sapiens, HCT-116) it was 1.1 nM; in data set [3] (Homo sapiens, HT-29), 2.4 nM.

In general, MTD refers to the largest dose that counted as tolerated. Low values mean a narrow tolerated range, high ones a wide tolerated range. In the case of `CCC1(OC(=O)CCN2CCCCC2)C(=O)Cc2c1cc1n(c2=O)Cc2c-1nc1cc3c(cc1c2C1CCC1)OCO3.Cl` (stereo not drawn) [Example 2, 7-Ethyl-2,3-methylenedioxy-13-cyclobutyl-8,10-dioxo-8,9,10,12-tetrahydro-7H-cyclopenta[6,7]indolizino[1,2-b]quinolin-7-yl 3-piperidinopropanoate hydrochloride], the 50% inhibitory concentration (IC50) stood at 1.5 nM in data set [2] (Homo sapiens, HCT-116) and 3.7 nM in data set [3] (Homo sapiens, HT-29). The compound further returned a maximum tolerated dose (MTD) at 3 weeks in data set [4] of 25 mg/kg. The “toxicity relative to the non-esterified homologue (compound of Preparation 2)” value in data set [5] is on record as “two times less toxic”. Also, in data set [6], the “in vivo activity with respect to HCT116 compared with compound of Preparation 2” value was “same in vivo activity”.
